Converted amounts (≈) assume the structure as drawn. Structures can show the parent of a compound that is named as a salt. Where two headings read alike, the source gives them in different places.
System: pathogenic bacteria
Experiment: MIC by microdilution broth method (NCCLS M7-A4), in vitro antibacterial activity
Format: cell-based
Outline: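 Broth microdilution per NCCLS M7-A4: two-fold serial dilutions in cation-adjusted Mueller-Hinton broth, inoculum about 5×10^4 CFU/well. Trays incubated 16–20 h at 35 °C. MIC read by comparing growth against no-compound growth controls.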

[1] = Staphylococcus aureus, Organism A: Staphylococcus aureus OC4172, read-out: MIC
[2] = Streptococcus pneumoniae, ATCC49619, Organism E: Streptococcus pneumoniae ATCC 49619, read-out: MIC
[3] = Streptococcus pneumoniae, Organism B: fluoroquinolone-resistant clinical isolate of Streptococcus pneumoniae (QRDR amino acid substitutions)
[4] = Streptococcus pneumoniae, Organism C: fluoroquinolone-resistant clinical isolate of Streptococcus pneumoniae (QRDR amino acid substitutions)
[5] = Streptococcus pneumoniae, Organism D: fluoroquinolone-resistant clinical isolate of Streptococcus pneumoniae (QRDR amino acid substitutions)

C/C(CN)=C1/CCCN(c2c(F)cc3c(=O)c(C(=O)O)cn(-c4nc(N)c(F)cc4F)c3c2Cl)C1 [Compound 423, (E)-1-(6-Amino-3,5-difluoro-pyridin-2-yl)-7-[3-(2-amino-1-methyl-ethylidene)-piperidin-1-yl]-8-chloro-6-fluoro-4-oxo-1,4-dihydro-quinoline-3-carboxylic acid]
MIC [1]: 0.25 µg/mL (≈ 0.492 µM)
MIC [2]: 4 µg/mL (≈ 7.88 µM)
MIC [3]: > 16 µg/mL
MIC [4]: > 16 µg/mL
MIC [5]: > 16 µg/mL

Cc1c(F)c(N2CCC/C(=C(\F)CN)C2)cc2c1c(=O)c(C(=O)O)cn2C1CC1 [Compound 424, (E)-7-[3-(2-Amino-1-fluoro-ethylidene)-piperidin-1-yl]-1-cyclopropyl-6-fluoro-5-methyl-4-oxo-1,4-dihydro-quinoline-3-carboxylic acid]
MIC [1]: ≤ 0.015 µg/mL
MIC [2]: ≤ 1 µg/mL
MIC [3]: 0.06 µg/mL (≈ 0.149 µM)
MIC [4]: 0.5 µg/mL (≈ 1.24 µM)
MIC [5]: ≤ 1 µg/mL

Cc1c(F)c(N2CCC/C(=C(/F)CN)C2)cc2c1c(=O)c(C(=O)O)cn2C1CC1 [Compound 425, (Z)-7-[3-(2-Amino-1-fluoro-ethylidene)-piperidin-1-yl]-1-cyclopropyl-6-fluoro-5-methyl-4-oxo-1,4-dihydro-quinoline-3-carboxylic acid]
MIC [1]: 0.06 µg/mL (≈ 0.149 µM)
MIC [2]: 1 µg/mL (≈ 2.48 µM)
MIC [3]: 4 µg/mL (≈ 9.92 µM)
MIC [4]: 16 µg/mL (≈ 39.7 µM)
MIC [5]: 8 µg/mL (≈ 19.8 µM)

Cc1c(F)c(N2CCC/C(=C(\Cl)CN)C2)cc2c1c(=O)c(C(=O)O)cn2C1CC1 [Compound 426, (E)-7-[3-(2-Amino-1-chloro-ethylidene)-piperidin-1-yl]-1-cyclopropyl-6-fluoro-5-methyl-4-oxo-1,4-dihydro-quinoline-3-carboxylic acid]
MIC [1]: ≤ 0.015 µg/mL
MIC [2]: 0.06 µg/mL (≈ 0.143 µM)
MIC [3]: ≤ 0.5 µg/mL
MIC [4]: 1 µg/mL (≈ 2.38 µM)
MIC [5]: 0.25 µg/mL (≈ 0.595 µM)

Cc1c(F)c(N2CCC/C(=C/CN)C2)cc2c1c(=O)c(C(=O)O)cn2C1CC1 [Compound 427, (Z)-7-[3-(2-Amino-ethylidene)-piperidin-1-yl]-1-cyclopropyl-6-fluoro-5-methyl-4-oxo-1,4-dihydro-quinoline-3-carboxylic acid]
MIC [1]: ≤ 0.015 µg/mL
MIC [2]: 0.12 µg/mL (≈ 0.311 µM)
MIC [3]: 2 µg/mL (≈ 5.19 µM)
MIC [4]: 4 µg/mL (≈ 10.4 µM)
MIC [5]: 1 µg/mL (≈ 2.59 µM)

CNC/C(Cl)=C1/CCCN(c2cc3c(cc2F)c(=O)c(C(=O)O)cn3C2CC2)C1.Cl [Compound 428, (E)-7-[3-(1-Chloro-2-methylamino-ethylidene)-piperidin-1-yl]-1-cyclopropyl-6-fluoro-4-oxo-1,4-dihydroquinoline-3-carboxylic Acid Hydrochloride Salt]
MIC [1]: 0.25 µg/mL
MIC [2]: 1 µg/mL
MIC [3]: > 16 µg/mL
MIC [4]: > 16 µg/mL
MIC [5]: > 16 µg/mL

CNCC(F)=C1CN(c2cc3c(cc2F)c(=O)c(C(=O)O)cn3C2CC2)C1.O=C(O)C(F)(F)F [Compound 430, 1-Cyclopropyl-6-fluoro-7-[3-(1-fluoro-2-methylamino-ethylidene)-azetidin-1-yl]-4-oxo-1,4-dihydro-quinoline-3-carboxylic acid trifluoroacetic acid salt]
MIC [1]: 0.12 µg/mL
MIC [2]: 0.5 µg/mL
MIC [3]: 8 µg/mL
MIC [4]: 2 µg/mL
MIC [5]: 4 µg/mL

CNCC(Cl)=C1CN(c2cc3c(cc2F)c(=O)c(C(=O)O)cn3C2CC2)C1 [Compound 431, 7-[3-(1-Chloro-2-methylamino-ethylidene)-azetidin-1-yl]-1-cyclopropyl-6-fluoro-4-oxo-1,4-dihydro-quinoline-3-carboxylic acid trifluoroacetic acid salt]
MIC (Staphylococcus aureus, Organism A: Staphylococcus aureus OC4172): 0.06 µg/mL
MIC (Streptococcus pneumoniae, ATCC49619, Organism E: Streptococcus pneumoniae ATCC 49619): 0.25 µg/mL
MIC [3]: 4 µg/mL
MIC [4]: 1 µg/mL
MIC [5]: 2 µg/mL

COc1c(N2CCC(=C(C#N)CN)CC2)c(F)cc2c(=O)c(C(=O)O)cn(C3CC3)c12 [Compound 433, 7-[4-(2-Amino-1-cyano-ethylidene)-piperidin-1-yl]-1-cyclopropyl-6-fluoro-8-methoxy-4-oxo-1,4-dihydro-quinoline-3-carboxylic Acid]
MIC [1]: ≤ 0.015 µg/mL
MIC [2]: 0.12 µg/mL (≈ 0.281 µM)
MIC [4]: 0.5 µg/mL (≈ 1.17 µM)
MIC [5]: 0.5 µg/mL (≈ 1.17 µM)

C[C@H]1COc2c(N3CCC(=C(C#N)CN)CC3)c(F)cc3c(=O)c(C(=O)O)cn1c23 [Compound 435, 9-[4-(2-Amino-1-cyano-ethylidene)-piperidin-1-yl]-8-fluoro-(3S)-3-methyl-6-oxo-2,3-dihydro-6H-1-oxa-3a-aza-phenalene-5-carboxylic Acid]
MIC [1]: 0.12 µg/mL (≈ 0.291 µM)
MIC [2]: 0.5 µg/mL (≈ 1.21 µM)
MIC [4]: 4 µg/mL (≈ 9.7 µM)
MIC [5]: 8 µg/mL (≈ 19.4 µM)

N#CC(CN)=C1CCN(c2c(F)cc3c(=O)c(C(=O)O)cn(C4CC4)c3c2OC(F)F)CC1 [Compound 437, 7-[4-(2-Amino-1-cyano-ethylidene)-piperidin-1-yl]-1-cyclopropyl-6-fluoro-8-difluoromethoxy-4-oxo-1,4-dihydro-quinoline-3-carboxylic Acid]
MIC [1]: 0.06 µg/mL (≈ 0.13 µM)
MIC [2]: 0.12 µg/mL (≈ 0.259 µM)
MIC [4]: 1 µg/mL (≈ 2.16 µM)
MIC [5]: 0.25 µg/mL (≈ 0.541 µM)

COc1c(N2CCC(=C(C#N)CN)CC2)c(F)cc2c(=O)c(C(=O)O)cn([C@@H]3C[C@@H]3F)c12 [Compound 439, 7-[4-(2-Amino-1-cyano-ethylidene)-piperidin-1-yl]-6-fluoro-(1R,2S)-1-(2-fluoro-cyclopropyl)-8-methoxy-4-oxo-1,4-dihydro-quinoline-3-carboxylic Acid]
MIC [1]: 0.06 µg/mL (≈ 0.135 µM)
MIC [2]: 0.25 µg/mL (≈ 0.563 µM)
MIC [4]: 2 µg/mL (≈ 4.5 µM)
MIC [5]: 2 µg/mL (≈ 4.5 µM)

N#C/C(CN)=C1\CCCN(c2nc3c(cc2F)c(=O)c(C(=O)O)cn3C2CC2)C1 [Compound 441, (E)-7-[3-(2-Amino-1-cyano-ethylidene)-piperidin-1-yl]-1-cyclopropyl-6-fluoro-4-oxo-1,4-dihydro-[1,8]naphthyridine-3-carboxylic Acid]
MIC [1]: 0.5 µg/mL (≈ 1.26 µM)
MIC [2]: 8 µg/mL (≈ 20.1 µM)
MIC [3]: 8 µg/mL (≈ 20.1 µM)
MIC [4]: > 16 µg/mL
MIC [5]: > 16 µg/mL

N#C/C(CN)=C1/CCCN(c2nc3c(cc2F)c(=O)c(C(=O)O)cn3C2CC2)C1 [Compound 443, (Z)-7-[3-(2-Amino-1-cyano-ethylidene)-piperidin-1-yl]-1-cyclopropyl-6-fluoro-4-oxo-1,4-dihydro-[1,8]naphthyridine-3-carboxylic Acid]
MIC [1]: 0.5 µg/mL (≈ 1.26 µM)
MIC [2]: 8 µg/mL (≈ 20.1 µM)
MIC [3]: 8 µg/mL (≈ 20.1 µM)
MIC [4]: > 16 µg/mL
MIC [5]: > 16 µg/mL

COc1c(N2CCC(=C(Cl)CNC(=O)CN)CC2)c(F)cc2c(=O)c(C(=O)O)cn(C3CC3)c12.O=C(O)C(F)(F)F [Compound 445, 7-{4-[2-(2-Amino-acetylamino)-1-chloro-ethylidene]-piperidin-1-yl}-1-cyclopropyl-6-fluoro-8-methoxy-4-oxo-1,4-dihydro-quinoline-3-carboxylic Acid Trifluoroacetate Salt]
MIC [1]: 0.12 µg/mL
MIC [2]: 1 µg/mL
MIC [3]: 16 µg/mL
MIC [4]: > 16 µg/mL
MIC [5]: > 16 µg/mL

COc1c(N2CCC/C(=C(/Cl)CN)C2)c(F)cc2c(=O)c(C(=O)O)cn(C3CC3)c12 [Compound 446, (Z)-7-[3-(2-Amino-1-chloro-ethylidene)-piperidin-1-yl]-1-cyclopropyl-6-fluoro-8-methoxy-4-oxo-1,4-dihydro-quinoline-3-carboxylic acid]
MIC [1]: 0.25 µg/mL (≈ 0.574 µM)
MIC [2]: 1 µg/mL (≈ 2.29 µM)
MIC [4]: 4 µg/mL (≈ 9.18 µM)
MIC [5]: 4 µg/mL (≈ 9.18 µM)

NC/C(Cl)=C1\CCCN(c2c(F)cc3c(=O)c(C(=O)O)cn(C4CC4)c3c2OC(F)F)C1 [Compound 447, (Z)-7-[3-(2-Amino-1-chloro-ethylidene)-piperidin-1-yl]-1-cyclopropyl-8-difluoromethoxy-6-fluoro-4-oxo-1,4-dihydro-quinoline-3-carboxylic acid]
MIC [1]: 0.25 µg/mL (≈ 0.53 µM)
MIC [2]: 1 µg/mL (≈ 2.12 µM)
MIC [4]: 16 µg/mL (≈ 33.9 µM)
MIC [5]: 1 µg/mL (≈ 2.12 µM)

C[C@H]1COc2c(N3CCC/C(=C(/Cl)CN)C3)c(F)cc3c(=O)c(C(=O)O)cn1c23 [Compound 448, (Z)-9-[3-(2-Amino-1-chloro-ethylidene)-piperidin-1-yl]-8-fluoro-(3S)-3-methyl-6-oxo-2,3-dihydro-6H-1-oxa-3a-aza-phenalene-5-carboxylic acid]
MIC [1]: 0.25 µg/mL (≈ 0.593 µM)
MIC [2]: 2 µg/mL (≈ 4.74 µM)
MIC [4]: 8 µg/mL (≈ 19 µM)
MIC [5]: 16 µg/mL (≈ 37.9 µM)

COc1c(N2CCC/C(=C(/Cl)CN)C2)c(F)cc2c(=O)c(C(=O)O)cn([C@@H]3C[C@@H]3F)c12 [Compound 449, (Z)-7-[3-(2-Amino-1-chloro-ethylidene)-piperidin-1-yl]-6-fluoro-(1R,2S)-1-(2-fluoro-cyclopropyl)-8-methoxy-4-oxo-1,4-dihydro-quinoline-3-carboxylic acid]
MIC [1]: 0.25 µg/mL (≈ 0.551 µM)
MIC [2]: 2 µg/mL (≈ 4.41 µM)
MIC [4]: > 16 µg/mL
MIC [5]: 16 µg/mL (≈ 35.3 µM)

NC/C(Cl)=C1\CCCN(c2c(F)cc3c(=O)c(C(=O)O)cn(-c4nc(N)c(F)cc4F)c3c2Cl)C1 [Compound 450, (Z)-7-[3-(2-Amino-1-chloro-ethylidene)-piperidin-1-yl]-1-(6-amino-3,5-difluoro-pyridin-2-yl)-8-chloro-6-fluoro-4-oxo-1,4-dihydro-quinoline-3-carboxylic acid]
MIC [1]: 0.12 µg/mL (≈ 0.227 µM)
MIC [2]: 0.5 µg/mL (≈ 0.946 µM)
MIC [4]: 8 µg/mL (≈ 15.1 µM)
MIC [5]: 8 µg/mL (≈ 15.1 µM)

Cc1c(F)c(N2CCC/C(=C\CN)C2)cc2c1c(=O)c(C(=O)O)cn2C1CC1 [Compound 451, (E)-7-[3-(2-Amino-ethylidene)-piperidin-1-yl]-1-cyclopropyl-6-fluoro-5-methyl-4-oxo-1,4-dihydro-quinoline-3-carboxylic acid]
MIC [1]: 0.25 µg/mL (≈ 0.649 µM)
MIC [2]: 1 µg/mL (≈ 2.59 µM)
MIC [4]: 16 µg/mL (≈ 41.5 µM)
MIC [5]: 1 µg/mL (≈ 2.59 µM)

Cc1c(F)c(N2CCC/C(=C(/Cl)CN)C2)cc2c1c(=O)c(C(=O)O)cn2C1CC1 [Compound 452, (Z)-7-[3-(2-Amino-1-chloro-ethylidene)-piperidin-1-yl]-1-cyclopropyl-6-fluoro-5-methyl-4-oxo-1,4-dihydro-quinoline-3-carboxylic acid]
MIC [1]: 0.5 µg/mL (≈ 1.19 µM)
MIC [2]: 4 µg/mL (≈ 9.53 µM)
MIC [4]: 4 µg/mL (≈ 9.53 µM)
MIC [5]: > 16 µg/mL

From US20090156577A1, “7-AMINO ALKYLIDENYL-HETEROCYCLIC QUINOLONES AND NAPHTHYRIDONES” (priority 2004, published 2009)
